Measurements from US20230265151A1, “GIP/GLP1 CO-AGONIST COMPOUNDS” (priority 2020, published 2023).
Read-outs that look alike come from different tables or passages of the source. *1 amine or outer side, *2 acyl side, *3 side chain or, on linkers, in order; H or OH if unused. Where a SMILES comes first, the peptide text is derived from it. Side-chain parts run from the residue outwards. [ ]: non-standard residue; d: D form. The star is where a group is joined. αMePhe(2-F) = C[C@](N)(Cc1ccccc1F)C(=O)O; γGlu = O=C(O)[C@H](CCC(=O)[*:2])N[*:1]; C14 diacid = O=C(O)CCCCCCCCCCCCC(=O)*; αMeY = C[C@](N)(Cc1ccc(O)cc1)C(=O)O; 4Pal = N[C@@H](Cc1ccncc1)C(=O)O; αMeL = CC(C)C[C@](C)(N)C(=O)O; Orn = NCCC[C@H](N)C(=O)O; AEEA = NCCOCCOCC(=O)O; Aib = CC(C)(N)C(=O)O

What was measured:
[1] = target: T1, human GLP-1 receptor (hGLP-1R) (Homo sapiens, UniProt P43220); experiment: [125I]-GLP-1 binding, SPA with membranes of HEK293 cells expressing hGLP-1R
T1 construct: expressed in transfected cells; crude membranes

hGIPR = target: T2, hGIPR (Homo sapiens, UniProt P48546); experiment: Functional cAMP formation (HTRF) in HEK-293 clonal cells expressing hGIPR, 0.1% bovine casein, without or with 1.0% human serum albumin; format: cell-based; settings: for Emax: percent of maximal response to GIP(1-42)NH2; for EC50: cAMP
T2 construct: expressed in transfected cells
T2 sequence (P48546 22-466): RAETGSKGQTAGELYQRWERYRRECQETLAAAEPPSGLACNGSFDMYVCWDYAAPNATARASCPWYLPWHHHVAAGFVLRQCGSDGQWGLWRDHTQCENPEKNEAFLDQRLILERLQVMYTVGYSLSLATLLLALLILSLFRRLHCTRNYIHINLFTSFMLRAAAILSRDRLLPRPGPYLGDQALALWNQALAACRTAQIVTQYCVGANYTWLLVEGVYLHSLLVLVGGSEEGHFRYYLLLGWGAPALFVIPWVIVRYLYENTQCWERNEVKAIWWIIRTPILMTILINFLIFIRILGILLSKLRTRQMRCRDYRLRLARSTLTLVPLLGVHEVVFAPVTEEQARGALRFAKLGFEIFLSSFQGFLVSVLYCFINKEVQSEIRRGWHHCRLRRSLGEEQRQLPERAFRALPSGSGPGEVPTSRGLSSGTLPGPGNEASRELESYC
Outline: (§1)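 Cells were stimulated with peptide for 30 min at 37° C, then intracellular cAMP was measured by competitive HTRF (665/620 nm ratio) and converted to nM using a cAMP standard curve. Relative EC50 and Emax came from four-parameter logistic fits of percent maximal response against peptide concentration.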

hGCGR = target: T3, hGCGR (Homo sapiens, UniProt P47871); experiment: Functional cAMP formation (HTRF) in HEK-293 clonal cells expressing hGCGR, 0.1% bovine casein, without or with 1.0% human serum albumin; format: cell-based; settings: cAMP, 37° C.
T3 construct: expressed in transfected cells
Outline: as §1

hGLP-1R = hGLP-1R (Homo sapiens, UniProt P43220); experiment: Functional cAMP formation (HTRF) in HEK-293 clonal cells expressing hGLP-1R, 0.1% bovine casein, without or with 1.0% human serum albumin; format: cell-based; design: expressed in transfected cells; settings: for Emax: percent of maximal response to GLP-1(7-36)NH2; for EC50: cAMP, 0.1% bovine casein (no human serum albumin), geometric mean
Outline: as §1

[2] = human GLP-1R, geometric mean (SEM, n), read-out: Binding Affinity Ki, nM (SEM, n) hGLP-1R
[3] = 37° C., 0.1% bovine casein (no human serum albumin), geometric mean, read-out: hGIPR EC50, nM (SEM, n)
[4] = 0.1% bovine casein (no human serum albumin), geometric mean, read-out: hGCGR EC50, nM (SEM, n)
[5] = 0.1% bovine casein and 1.0% human serum albumin, geometric mean (SEM, n), read-out: hGCGR EC50, nM (SEM, n)
[6] = HEK293, cAMP, 37° C., 0.1% bovine casein, arithmetic mean, read-out: hGLP-1R Emax, % ± SEM
[7] = 37° C., read-out: hGLP-1R EC50, nM (SEM, n)
[8] = HEK293, read-out: hGIPR Emax, % ± SEM, cAMP, 37° C., 0.1% bovine casein and 1.0% human serum albumin
[9] = hGIPR EC50, nM (SEM, n), 37° C., 0.1% bovine casein (no human serum albumin), geometric mean
[10] = hGCGR EC50, nM (SEM, n), 0.1% bovine casein (no human serum albumin), geometric mean
[11] = hGCGR EC50, nM (SEM, n), 0.1% bovine casein and 1.0% human serum albumin, geometric mean (SEM, n)
[12] = HEK293, read-out: hGLP-1R Emax, % ± SEM, cAMP, 37° C., 0.1% bovine casein and 1.0% human serum albumin
[13] = hGLP-1R EC50, nM (SEM, n), 37° C.

T1 sequence (P43220 24-463): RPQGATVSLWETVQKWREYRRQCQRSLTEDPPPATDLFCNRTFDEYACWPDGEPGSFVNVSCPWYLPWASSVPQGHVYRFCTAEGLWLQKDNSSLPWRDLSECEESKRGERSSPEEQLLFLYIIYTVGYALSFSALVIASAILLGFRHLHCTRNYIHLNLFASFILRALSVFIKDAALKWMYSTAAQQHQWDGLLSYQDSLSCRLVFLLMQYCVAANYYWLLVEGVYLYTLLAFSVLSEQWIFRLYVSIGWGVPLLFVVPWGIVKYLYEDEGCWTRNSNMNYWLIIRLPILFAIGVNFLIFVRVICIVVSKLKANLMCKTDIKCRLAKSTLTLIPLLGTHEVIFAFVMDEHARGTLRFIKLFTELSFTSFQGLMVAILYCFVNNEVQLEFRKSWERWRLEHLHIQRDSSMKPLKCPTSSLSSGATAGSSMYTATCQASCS
hGLP-1R, sequence (P43220 24-463): as above
T3 sequence (P47871 26-477): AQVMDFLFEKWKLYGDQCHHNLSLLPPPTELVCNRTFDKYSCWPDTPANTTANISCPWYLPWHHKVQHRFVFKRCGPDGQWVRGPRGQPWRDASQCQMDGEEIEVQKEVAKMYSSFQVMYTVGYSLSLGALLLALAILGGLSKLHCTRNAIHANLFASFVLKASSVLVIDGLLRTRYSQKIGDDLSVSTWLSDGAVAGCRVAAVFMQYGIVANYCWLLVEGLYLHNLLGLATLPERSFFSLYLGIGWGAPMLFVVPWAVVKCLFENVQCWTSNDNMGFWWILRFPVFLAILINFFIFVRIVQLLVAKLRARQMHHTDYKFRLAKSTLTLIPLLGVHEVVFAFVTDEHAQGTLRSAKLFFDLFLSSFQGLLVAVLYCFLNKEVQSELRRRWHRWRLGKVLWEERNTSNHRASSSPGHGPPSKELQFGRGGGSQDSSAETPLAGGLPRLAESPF

Structure (SMILES) | Ki [1, 2] | Emax (hGIPR; HEK293, cAMP, 37° C., 0.1% bovine casein and 1.0% human serum albumin, read-out: hGIPR Emax, % ± SEM) | Emax (hGIPR; HEK293, cAMP, 37° C., 0.1% bovine casein, arithmetic mean, read-out: hGIPR Emax, % ± SEM) | EC50 (hGIPR; [3]) | EC50 (hGIPR; 37° C., 0.1% bovine casein and 1.0% human serum albumin, geometric mean (SEM, n), read-out: hGIPR EC50, nM (SEM, n)) | EC50 (hGCGR; [4]) | EC50 (hGCGR; [5]) | Emax (hGLP-1R; HEK293, cAMP, 37° C., 0.1% bovine casein and 1.0% human serum albumin, read-out: hGLP-1R Emax, % ± SEM) | Emax (hGLP-1R; [6]) | EC50 (hGLP-1R; [7]) | Ki [1] | Emax (hGIPR; [8]) | Emax (hGIPR; HEK293, read-out: hGIPR Emax, % ± SEM, cAMP, 37° C., 0.1% bovine casein, arithmetic mean) | EC50 (hGIPR; [9]) | EC50 (hGCGR; [10]) | EC50 (hGCGR; [11]) | Emax (hGLP-1R; [12]) | EC50 (hGLP-1R; [13]) | Emax (hGLP-1R; HEK293, read-out: hGLP-1R Emax, % ± SEM, cAMP, 37° C., 0.1% bovine casein, arithmetic mean)
CC[C@H](C)[C@H](NC(=O)[C@H](CC(C)C)NC(=O)[C@](C)(Cc1ccc(O)cc1)NC(=O)[C@H](CCCCNC(=O)COCCOCCNC(=O)COCCOCCNC(=O)CC[C@H](NC(=O)CCCCCCCCCCCCC(=O)O)C(=O)O)NC(=O)[C@@H](NC(=O)[C@H](Cc1ccccc1)NC(=O)[C@H](CCCN)NC(=O)C(C)(C)NC(=O)[C@H](CCC(N)=O)NC(=O)[C@H](C)NC(=O)[C@H](CCC(N)=O)NC(=O)[C@H](CCCN)NC(=O)[C@H](CC(=O)O)NC(=O)[C@H](CC(C)C)NC(=O)[C@](C)(CC(C)C)NC(=O)CNC(=O)C(C)(C)NC(=O)[C@H](Cc1ccncc1)NC(=O)[C@H](CC(=O)O)NC(=O)[C@H](CO)NC(=O)[C@@H](NC(=O)[C@](C)(Cc1ccccc1F)NC(=O)[C@@H](NC(=O)CNC(=O)[C@H](CCC(=O)O)NC(=O)C(C)(C)NC(=O)[C@@H](N)Cc1ccc(O)cc1)[C@@H](C)O)[C@@H](C)O)[C@@H](C)CC)C(=O)N[C@@H](CCCCNC(=O)COCCOCCNC(=O)COCCOCCNC(=O)CC[C@H](NC(=O)CCCCCCCCCCCCC(=O)O)C(=O)O)C(=O)NCC(=O)NCC(=O)N1CCC[C@H]1C(=O)N[C@@H](CO)C(=O)N[C@@H](CO)C(=O)NCC(=O)N[C@@H](C)C(=O)N1CCC[C@H]1C(=O)N1CCC[C@H]1C(=O)N1CCC[C@H]1C(=O)N[C@@H](CO)C(N)=O [Example 441] (H-Y[Aib]EGT[αMePhe(2-F)]TSD[4Pal][Aib]G[αMeL]LD[Orn]QAQ[Aib][Orn]FIK([AEEA-AEEA-γGlu-C14 diacid])[αMeY]LIK([AEEA-AEEA-γGlu-C14 diacid])GGPSSGAPPPS-NH2) | 0.386 nM | 83.8% | 97.2% | 0.0174 nM | 1.38 nM | > 9950 nM | > 9950 nM | 111% | 110% | 0.134 nM |  |  |  |  |  |  |  |  | 
CC[C@H](C)[C@H](NC(=O)[C@H](CC(C)C)NC(=O)[C@](C)(Cc1ccc(O)cc1)NC(=O)[C@H](CCCCNC(=O)CCOCCOCCOCCOCCNC(=O)CC[C@H](NC(=O)CCCCCCCCCCCCC(=O)O)C(=O)O)NC(=O)[C@@H](NC(=O)[C@H](Cc1ccccc1)NC(=O)[C@H](CCCN)NC(=O)C(C)(C)NC(=O)[C@H](CCC(N)=O)NC(=O)[C@H](C)NC(=O)[C@H](CCC(N)=O)NC(=O)[C@H](CCCN)NC(=O)[C@H](CC(=O)O)NC(=O)[C@H](CC(C)C)NC(=O)[C@](C)(CC(C)C)NC(=O)[C@@H](NC(=O)C(C)(C)NC(=O)[C@H](Cc1ccncc1)NC(=O)[C@H](CC(=O)O)NC(=O)[C@H](CO)NC(=O)[C@@H](NC(=O)[C@](C)(Cc1ccccc1F)NC(=O)[C@@H](NC(=O)CNC(=O)[C@H](CCC(=O)O)NC(=O)C(C)(C)NC(=O)[C@@H](N)Cc1ccc(O)cc1)[C@@H](C)O)[C@@H](C)O)[C@@H](C)CC)[C@@H](C)CC)C(=O)N[C@@H](CCCCNC(=O)CCOCCOCCOCCOCCNC(=O)CC[C@H](NC(=O)CCCCCCCCCCCCC(=O)O)C(=O)O)C(=O)NCC(=O)NCC(=O)N1CCC[C@H]1C(=O)N[C@@H](CO)C(=O)N[C@@H](CO)C(=O)NCC(=O)N[C@@H](C)C(=O)N1CCC[C@H]1C(=O)N1CCC[C@H]1C(=O)N1CCC[C@H]1C(=O)N[C@@H](CO)C(N)=O [Example 457] | 0.252 nM |  |  | 0.0106 nM |  | > 9950 nM | > 9950 nM |  | 119% | 0.185 nM |  |  |  |  |  |  |  |  | 
CC[C@H](C)[C@H](NC(=O)[C@H](CC(C)C)NC(=O)[C@](C)(Cc1ccc(O)cc1)NC(=O)[C@H](CCCCNC(=O)CCOCCOCCOCCOCCNC(=O)CC[C@H](NC(=O)CCCCCCCCCOc1ccc(C(=O)O)cc1)C(=O)O)NC(=O)[C@@H](NC(=O)[C@H](Cc1ccccc1)NC(=O)[C@H](CCCN)NC(=O)C(C)(C)NC(=O)[C@H](CCC(N)=O)NC(=O)[C@H](C)NC(=O)[C@H](CCC(N)=O)NC(=O)[C@H](CCCN)NC(=O)[C@H](CC(=O)O)NC(=O)[C@H](CC(C)C)NC(=O)[C@](C)(CC(C)C)NC(=O)[C@@H](NC(=O)C(C)(C)NC(=O)[C@H](Cc1ccncc1)NC(=O)[C@H](CC(=O)O)NC(=O)[C@H](CO)NC(=O)[C@@H](NC(=O)[C@](C)(Cc1ccccc1F)NC(=O)[C@@H](NC(=O)CNC(=O)[C@H](CCC(=O)O)NC(=O)C(C)(C)NC(=O)[C@@H](N)Cc1ccc(O)cc1)[C@@H](C)O)[C@@H](C)O)[C@@H](C)CC)[C@@H](C)CC)C(=O)N[C@@H](CCCCNC(=O)CCOCCOCCOCCOCCNC(=O)CC[C@H](NC(=O)CCCCCCCCCOc1ccc(C(=O)O)cc1)C(=O)O)C(=O)NCC(=O)NCC(=O)N1CCC[C@H]1C(=O)N[C@@H](CO)C(=O)N[C@@H](CO)C(=O)NCC(=O)N[C@@H](C)C(=O)N1CCC[C@H]1C(=O)N1CCC[C@H]1C(=O)N1CCC[C@H]1C(=O)N[C@@H](CO)C(N)=O [Example 461] |  |  |  |  |  |  |  |  |  |  | 0.14 nM | 98.5% | 100% | 0.0103 nM | > 10100 nM | > 10100 nM | 105% | 0.173 nM | 
CC[C@H](C)[C@H](NC(=O)[C@H](CC(C)C)NC(=O)[C@](C)(Cc1ccc(O)cc1)NC(=O)[C@H](CCCCNC(=O)COCCOCCNC(=O)COCCOCCNC(=O)[C@H]1CC[C@H](CNC(=O)CC[C@H](NC(=O)CCCCCCCCCOc2ccc(C(=O)O)cc2)C(=O)O)CC1)NC(=O)[C@@H](NC(=O)[C@H](Cc1ccccc1)NC(=O)[C@H](CCCN)NC(=O)C(C)(C)NC(=O)[C@H](CCC(N)=O)NC(=O)[C@H](C)NC(=O)[C@H](CCC(N)=O)NC(=O)[C@H](CCCN)NC(=O)[C@H](CC(=O)O)NC(=O)[C@H](CC(C)C)NC(=O)[C@](C)(CC(C)C)NC(=O)[C@@H](NC(=O)C(C)(C)NC(=O)[C@H](Cc1ccncc1)NC(=O)[C@H](CC(=O)O)NC(=O)[C@H](CO)NC(=O)[C@@H](NC(=O)[C@](C)(Cc1ccccc1F)NC(=O)[C@@H](NC(=O)CNC(=O)[C@H](CCC(=O)O)NC(=O)C(C)(C)NC(=O)[C@@H](N)Cc1ccc(O)cc1)[C@@H](C)O)[C@@H](C)O)[C@@H](C)CC)[C@@H](C)CC)C(=O)N[C@@H](CCCCNC(=O)COCCOCCNC(=O)COCCOCCNC(=O)[C@H]1CC[C@H](CNC(=O)CC[C@H](NC(=O)CCCCCCCCCOc2ccc(C(=O)O)cc2)C(=O)O)CC1)C(=O)NCC(=O)NCC(=O)N1CCC[C@H]1C(=O)N[C@@H](CO)C(=O)N[C@@H](CO)C(=O)NCC(=O)N[C@@H](C)C(=O)N1CCC[C@H]1C(=O)N1CCC[C@H]1C(=O)N1CCC[C@H]1C(=O)N[C@@H](CO)C(N)=O [Example 471] |  |  |  |  |  |  |  |  |  |  | 0.197 nM | 90.1% |  | 0.0107 nM | > 9950 nM | > 9950 nM | 110% | 0.143 nM | 112%
